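Exposure lasted 48 hours, with cells grown in 96-well plates and compounds tested at five concentrations. GI50 marks 50% less growth. TGI is the concentration that stops growth completely.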

What all share (experiment): NCI tumour cell line growth inhibition, 48 h
In assay [1] the test system is RPMI-8226 leukemia.
The test system of assay [2] is CAKI-1 renal.
Assay [3] has as its system SF-268 CNS.
The subject of assay [4] is OVCAR-3 ovarian.
Assay [5] has as its system SNB-75 CNS.
In assay [6] the test system is NCI/ADR-RES ovarian.
Assay [7] concerns SK-MEL-5 melanoma.
In assay [8] the test system is IGROV1 ovarian.
The test system of assay [9] is MALME-3M melanoma.
The test system of assay [10] is TK-10 renal.

Regarding `COc1cc2ncn(-c3cc(OCc4ccccc4C(F)(F)F)c(C(=O)N(C)C)s3)c2cc1OC`, the GI50 in [1] is more than 25 µM; in assay [2] it was more than 25 µM; in [3], more than 25 µM; in [4], more than 21.8 µM; in [5], more than 18.6 µM; in [6] it was more than 17 µM. The GI50 in [7] is 6.7 µM; in assay [8] it was more than 25 µM; in assay [9], more than 25 µM; in assay [10], more than 22.6 µM. Moreover, the TGI in [1], in assay [2], in [3], in assay [4], in assay [5] and in assay [6] was more than 25 µM in each case. Further, the TGI in [7] is more than 13.1 µM; in assay [8], more than 25 µM; in assay [9], more than 25 µM; in assay [10], more than 25 µM.
With `CS(=O)(=O)CCNCc1cc(-c2cc3c(Nc4ccc(OCc5cccc(F)c5)c(Cl)c4)ncnc3s2)cs1`, the GI50 is 6.95 µM in assay [1]; 4.79 µM in [2]; 11.3 µM in assay [3]; 6.82 µM in assay [4]; 7.9 µM in assay [5]; 11.3 µM in assay [6]. Further, the GI50 was 7.09 µM in assay [7], 5.61 µM in assay [8], 19.1 µM in [9] and 3.16 µM in assay [10]. Also, the TGI was 23.2 µM in assay [1]; more than 25 µM in assay [2]; more than 25 µM in assay [3]; more than 25 µM in assay [4]; more than 25 µM in [5]; more than 25 µM in [6]. Also, the TGI in [7], in assay [8], in assay [9] and in assay [10] was more than 25 µM throughout.
On to `COc1ccc2c(=O)cc(-c3ccccc3)[nH]c2c1`, for which the GI50 was 0.564 µM in assay [1]; 0.323 µM in assay [2]; 1.28 µM in [3]; 0.408 µM in assay [4]; 0.547 µM in assay [6]; 0.323 µM in assay [7]. The GI50 is 0.578 µM in assay [8], 0.684 µM in assay [9] and more than 100 µM in assay [10]. In addition, the TGI in assay [1] was more than 58.4 µM; in [2], more than 100 µM; in assay [3] it was more than 100 µM; in assay [4], 2.14 µM; in assay [5], more than 100 µM; in assay [6], 6.15 µM. Also, the TGI in [7] is 7.4 µM; in assay [8], more than 100 µM; in assay [9] it was more than 100 µM; in [10] it was more than 100 µM.
As for `C=CCn1c(C)nc2ccc(Nc3nc(Nc4ccc(F)cc4)nc4ccccc34)cc21`, the GI50 was 1.85 µM in assay [1]; 6.86 µM in [2]; 8.69 µM in assay [3]; 5.04 µM in [4]; 1.51 µM in assay [5]; 4.01 µM in assay [6]. Besides, the GI50 was 1.36 µM in assay [7], 6.09 µM in assay [8], 13.1 µM in assay [9] and 6.83 µM in assay [10]. Moreover, the TGI stood at 4.57 µM in assay [1]; 27.5 µM in assay [2]; 27.8 µM in assay [3]; 17.8 µM in assay [4]; 3.37 µM in assay [5]; 37.7 µM in assay [6]. In addition, the TGI came to 2.64 µM in assay [7], 27.2 µM in [8], 35.7 µM in assay [9] and 24.6 µM in assay [10].
In the case of `Cc1ncc(C(=O)Nc2ccc(CN3CCN(C)CC3)c(C(F)(F)F)c2)cc1C#Cc1cnc2cccnn12`, the GI50 in assay [1] was 0.145 µM; in [2], 0.365 µM; in [3], 0.622 µM; in [4], 0.643 µM; in [5] it was 1.04 µM; in [6] it was 0.997 µM. Besides, the GI50 was 0.595 µM in assay [7], 0.268 µM in assay [8], 0.0895 µM in assay [9] and 0.797 µM in [10]. The TGI in [1] was found to be 1.29 µM; in [2], 2.82 µM; in assay [3] it was 2.59 µM; in assay [4], 2.52 µM; in assay [5], 1.99 µM; in assay [6], 4.09 µM. Moreover, the TGI came out at 1.26 µM in [7], 4.45 µM in [8], 0.355 µM in assay [9] and 5.81 µM in [10].
As to `O=S(=O)(NCCNc1nccc(-c2c(-c3ccc(F)c(O)c3)nc3sccn23)n1)c1ccc(F)cc1`, the GI50 in [1] is 1.78 µM; in [2] it was 4.02 µM; in assay [3], 4.71 µM; in [4], 4.09 µM; in assay [5] it was 1.55 µM; in assay [6], 8.5 µM. In addition, the GI50 in assay [7] is 1.52 µM; in [8], 2.43 µM; in assay [9] it was 0.232 µM; in assay [10], 16.2 µM. Moreover, the TGI was 4.24 µM in assay [1]; 31.6 µM in assay [2]; more than 100 µM in assay [3]; 59.5 µM in assay [4]; 8.81 µM in [5]; more than 100 µM in [6]. In addition, the TGI in assay [7] stood at 2.98 µM; in assay [8], 7.96 µM; in assay [9], 1.37 µM; in [10] it was 96.7 µM.
Take `CCC(O)c1ccc(Br)cc1NC(=O)c1cccc(Cl)c1` (centres undefined): the GI50 was 11.4 µM in assay [1]; 10.2 µM in assay [2]; 26.2 µM in [3]; 20.3 µM in assay [4]; 10.8 µM in [5]; 23.4 µM in [6]. Besides, the GI50 was 14.5 µM in [7], 17.2 µM in [8], 36.6 µM in [9] and 41.7 µM in [10]. For the same compound, the TGI was 48.3 µM in assay [1]; 51.4 µM in [2]; 93.2 µM in [3]; 71.1 µM in [4]; more than 100 µM in assay [5]; more than 100 µM in assay [6]. The TGI in assay [7] is 28.2 µM; in assay [8] it was 92.6 µM; in assay [9], more than 100 µM; in assay [10] it was more than 100 µM.
In the case of `COc1cc(OC)c(C(=O)/C=C/c2cc3c(cc2OCc2ccccc2)OC(C)(C)CC3)cc1CC=C(C)C`, the GI50 is 2.86 µM in assay [1]; 6.74 µM in assay [2]; 4.82 µM in assay [3]; 4.89 µM in [4]; 2.44 µM in [5]; 6.89 µM in [6]. Also, the GI50 is 3.33 µM in [7], 15 µM in [8], 4.89 µM in assay [9] and 8.89 µM in assay [10]. Also, the TGI in assay [1] was 11.6 µM; in assay [2], 16.9 µM; in assay [3] it was 15.2 µM; in assay [4], 13.1 µM; in [5] it was 13.1 µM; in [6] it was more than 25 µM. Besides, the TGI is 6.53 µM in [7], more than 25 µM in assay [8], 12.6 µM in [9] and 19.6 µM in assay [10].
For the compound `CN(C)CCNc1ccc(CO)c2sc3ccc(O)cc3c(=O)c12`, the TGI in [1] is 12.8 µM; in assay [2], more than 25.9 µM; in assay [3], 8.82 µM; in assay [4], 23.5 µM; in [5] it was 9.62 µM; in [6] it was 17.2 µM. Besides, the TGI was determined as 8.37 µM in assay [7], 16.4 µM in assay [8], 9.81 µM in [9] and 32.1 µM in [10].
Turning to `Cc1nc(N)nc2c1CCC(O)S2` (centres undefined), the GI50 was 21.3 µM in assay [1]; 33.7 µM in assay [2]; 4.84 µM in assay [3]; 2.76 µM in assay [4]; 11.2 µM in assay [5]; more than 100 µM in assay [6]. Besides, the GI50 in assay [7] is 12.5 µM; in assay [8], 4.67 µM; in assay [9] it was 11.3 µM; in assay [10], 32.1 µM. Moreover, the TGI was more than 100 µM in assay [1]; more than 100 µM in assay [2]; 25.6 µM in [3]; 7.7 µM in [4]; 39.8 µM in [5]; more than 100 µM in [6]. In addition, the TGI in assay [7] is 26.3 µM; in [8], 17.9 µM; in assay [9], 39.4 µM; in assay [10], more than 100 µM.
Regarding `CCCCCCCCCCCCCCCCCC1=NC(C)(C)CN1CC(C)O` (centres undefined), the GI50 was 14.4 µM in assay [1]; 14.4 µM in assay [2]; 1.94 µM in assay [3]; 5.35 µM in assay [4]; 9.11 µM in assay [5]; 3.97 µM in [6]. Also, the GI50 was 17.4 µM in assay [7], 10.1 µM in assay [8], 17.1 µM in [9] and 20.9 µM in assay [10]. For the same compound, the TGI in [1] amounted to 36 µM; in [2], 29.4 µM; in assay [3], 4.06 µM; in [4], 19.5 µM; in [5] it was 23.6 µM; in [6] it was 23.6 µM. Also, the TGI amounted to 32 µM in assay [7], 27.7 µM in assay [8], 34.4 µM in assay [9] and 39 µM in assay [10].
Regarding `COc1ccc(/C=C/C(=O)/C=C/c2cc3ccccc3[nH]c2=O)cc1`, the GI50 in assay [1] is 1.77 µM; in [2] it was 4.3 µM; in assay [3], 3.11 µM; in assay [4], 2.85 µM; in [5], 4.33 µM; in [6], 20.5 µM. Moreover, the GI50 is 11 µM in [7], 2.21 µM in assay [8], 9.17 µM in [9] and 5.45 µM in [10]. For the same compound, the TGI is 5.02 µM in assay [1]; 17.8 µM in assay [2]; 11.4 µM in assay [3]; 7.91 µM in [4]; 18.7 µM in [5]; more than 100 µM in assay [6]. Further, the TGI in assay [7] came out at 25.1 µM; in assay [8] it was 5.1 µM; in assay [9] it was 35.6 µM; in assay [10], 17.4 µM.
`O=C1c2ccccc2-[n+]2ccc3c([nH]c4ccccc43)c21`: the TGI in assay [1] was 0.468 µM; in assay [2], 2.07 µM; in assay [3] it was 1.3 µM; in assay [4] it was 0.432 µM; in assay [5], 1.93 µM; in assay [6], 4.61 µM. The TGI is 0.4 µM in assay [7], 0.671 µM in [8], 0.181 µM in [9] and 2.72 µM in assay [10].
Consider `Nc1ccccc1C#C/C=C\C#Cc1ccc(OCCCNC(=O)c2cc3ccccc3[nH]2)cc1`, for which the GI50 was 1.01 µM in assay [1]; 18.1 µM in assay [2]; 2.37 µM in [3]; 11.7 µM in [4]; 11.2 µM in assay [5]; 10.1 µM in assay [6]. Besides, the GI50 in assay [7] was 2.09 µM; in assay [8], 25.5 µM; in assay [9], 1.08 µM; in assay [10] it was 17.3 µM. For the same compound, the TGI in [1] is 17.6 µM; in assay [2] it was 72 µM; in assay [3], 37.4 µM; in assay [4], 95.6 µM; in assay [5] it was 73.3 µM; in assay [6] it was more than 100 µM. The TGI in assay [7] was 25.7 µM; in assay [8] it was more than 100 µM; in [9], 18.3 µM; in assay [10], 53.5 µM.
`COc1cc2nc(SCc3cc(OC)c(OC)c(OC)c3)n(Cc3ccccc3)c(=O)c2cc1OC`: the GI50 in assay [1] was 2.84 µM; in assay [2], 3.86 µM; in assay [3], 5.28 µM; in assay [4], 2.24 µM; in assay [5], 0.876 µM; in assay [6] it was 2.33 µM. The GI50 was 0.454 µM in [7], 7.82 µM in assay [8], 2.83 µM in assay [9] and 10.8 µM in [10]. Further, the TGI is more than 100 µM in assay [1]; more than 100 µM in assay [2]; 47.4 µM in assay [3]; 8.37 µM in assay [4]; 6.23 µM in [5]; 26.6 µM in [6]. Also, the TGI is 2.63 µM in assay [7], more than 70.5 µM in [8], 27 µM in assay [9] and 32.4 µM in assay [10].

(Values after PubChem BioAssay (NCI).)
